# Experimental data taken from the OligoGym collection.
# HELM strings list units from the 5' end as sugar, base in round brackets, then linkage (d deoxyribose, r ribose, m 2'-O-methyl, p phosphodiester). Strings are as the collection lists them; they lack the last nucleoside at the 3' end of the tested compound. [moe] = 2'-O-(2-methoxyethyl) (MOE); [sp] = phosphorothioate linkage; [m5C] = 5-methylcytosine
# Target: ATXN2
# Assay: mouse, dose not given
# Details: ASO
row,Substance,3 h FOB score
1,RNA1{[moe](T)[sp].[moe](G)p.[moe](G)p.[moe](A)p.[moe](T)p.[moe](T)p.d([m5C])[sp].d(T)[sp].d(G)[sp].d(T)[sp].d(A)[sp].d([m5C])[sp].d(T)[sp].d(T)[sp].d(T)[sp].d(T)[sp].[moe]([m5C])p.[moe](T)[sp].[moe]([m5C])}$$$$ (last 3' nucleoside missing),1 score 0-7
2,RNA1{[moe](A)[sp].[moe]([m5C])p.[moe](T)p.[moe](T)p.[moe]([m5C])p.d(T)[sp].d([m5C])[sp].d(T)[sp].d(A)[sp].d(T)[sp].d(T)[sp].d(T)[sp].d([m5C])[sp].d(T)[sp].d(T)[sp].[moe](T)p.[moe](G)p.[moe](T)[sp].[moe]([m5C])}$$$$ (last 3' nucleoside missing),3 score 0-7
3,RNA1{[moe](G)[sp].[moe](T)p.[moe](T)p.[moe](G)p.[moe](T)p.d(T)[sp].d(G)[sp].d(T)[sp].d(T)[sp].d(T)[sp].d(A)[sp].d([m5C])[sp].d(A)[sp].d(T)[sp].d(T)[sp].[moe](A)p.[moe](T)p.[moe](T)[sp].[moe](A)}$$$$ (last 3' nucleoside missing),0 score 0-7
4,RNA1{[moe](T)[sp].[moe]([m5C])p.[moe](T)p.[moe](G)p.[moe]([m5C])[sp].d(T)[sp].d(A)[sp].d(A)[sp].d([m5C])[sp].d(T)[sp].d(G)[sp].d(G)[sp].d(T)[sp].[moe](T)p.[moe](T)p.[moe](G)[sp].[moe]([m5C])}$$$$ (last 3' nucleoside missing),2 score 0-7
5,RNA1{[moe](T)[sp].[moe](G)p.[moe](T)p.[moe](A)p.[moe]([m5C])[sp].d(T)[sp].d(T)[sp].d(T)[sp].d(T)[sp].d([m5C])[sp].d(T)[sp].d([m5C])[sp].d(A)[sp].[moe](T)p.[moe](G)p.[moe](T)[sp].[moe](G)}$$$$ (last 3' nucleoside missing),0 score 0-7
6,RNA1{[moe](T)[sp].[moe](A)p.[moe]([m5C])p.[moe](T)p.[moe](T)[sp].d(T)[sp].d(T)[sp].d([m5C])[sp].d(T)[sp].d([m5C])[sp].d(A)[sp].d(T)[sp].d(G)[sp].[moe](T)p.[moe](G)p.[moe]([m5C])[sp].[moe](G)}$$$$ (last 3' nucleoside missing),4.75 score 0-7
7,RNA1{[moe](A)[sp].[moe](T)p.[moe](T)p.[moe]([m5C])p.[moe](T)[sp].d(G)[sp].d(T)[sp].d(A)[sp].d([m5C])[sp].d(T)[sp].d(T)[sp].d(T)[sp].d(T)[sp].[moe]([m5C])p.[moe](T)p.[moe]([m5C])[sp].[moe](A)}$$$$ (last 3' nucleoside missing),0 score 0-7
8,RNA1{[moe](A)[sp].[moe](T)p.[moe]([m5C])p.[moe](A)p.[moe](G)p.d(T)[sp].d(T)[sp].d(T)[sp].d(G)[sp].d(T)[sp].d(A)[sp].d(T)[sp].d(G)[sp].d(A)[sp].d([m5C])[sp].[moe]([m5C])p.[moe](A)p.[moe](T)[sp].[moe](A)}$$$$ (last 3' nucleoside missing),3 score 0-7
9,RNA1{[moe](T)[sp].[moe](A)p.[moe](G)p.[moe]([m5C])p.[moe](A)p.d(T)[sp].d([m5C])[sp].d(A)[sp].d(T)[sp].d(T)[sp].d(G)[sp].d(G)[sp].d([m5C])[sp].d(G)[sp].d([m5C])[sp].[moe](A)p.[moe](T)p.[moe](G)[sp].[moe](G)}$$$$ (last 3' nucleoside missing),6.25 score 0-7
10,RNA1{[moe](T)[sp].[moe](G)p.[moe](T)p.[moe](A)p.[moe]([m5C])p.d(T)[sp].d(T)[sp].d(T)[sp].d(T)[sp].d([m5C])[sp].d(T)[sp].d([m5C])[sp].d(A)[sp].d(T)[sp].d(G)[sp].[moe](T)p.[moe](G)p.[moe]([m5C])[sp].[moe](G)}$$$$ (last 3' nucleoside missing),1 score 0-7
11,RNA1{[moe]([m5C])[sp].[moe](A)p.[moe](G)p.[moe]([m5C])p.[moe](T)p.d([m5C])[sp].d(T)[sp].d(G)[sp].d(T)[sp].d(T)[sp].d([m5C])[sp].d(G)[sp].d(A)[sp].d(T)[sp].d(G)[sp].[moe]([m5C])p.[moe](A)p.[moe](G)[sp].[moe](G)}$$$$ (last 3' nucleoside missing),6.25 score 0-7
12,RNA1{[moe](A)[sp].[moe](T)p.[moe](G)p.[moe](T)p.[moe](A)p.d(G)[sp].d(T)[sp].d(T)[sp].d(A)[sp].d([m5C])[sp].d(A)[sp].d(T)[sp].d(G)[sp].d(T)[sp].d(A)[sp].[moe](A)p.[moe]([m5C])p.[moe]([m5C])[sp].[moe](A)}$$$$ (last 3' nucleoside missing),2 score 0-7
13,RNA1{[moe](G)[sp].[moe](T)p.[moe](A)p.[moe]([m5C])p.[moe](A)p.d(T)[sp].d(T)[sp].d(T)[sp].d(T)[sp].d(A)[sp].d(A)[sp].d([m5C])[sp].d([m5C])[sp].d([m5C])[sp].d(T)[sp].[moe](T)p.[moe](T)p.[moe](G)[sp].[moe](A)}$$$$ (last 3' nucleoside missing),2.5 score 0-7
14,RNA1{[moe](T)[sp].[moe](A)p.[moe](A)p.[moe](G)p.[moe]([m5C])p.d(T)[sp].d(G)[sp].d(T)[sp].d(G)[sp].d([m5C])[sp].d(T)[sp].d(A)[sp].d(T)[sp].d(G)[sp].d(G)[sp].[moe](T)p.[moe](G)p.[moe](G)[sp].[moe](T)}$$$$ (last 3' nucleoside missing),6.25 score 0-7
15,RNA1{[moe](A)[sp].[moe](T)p.[moe](A)p.[moe](A)p.[moe](A)p.d([m5C])[sp].d(T)[sp].d(G)[sp].d(T)[sp].d(T)[sp].d(T)[sp].d(A)[sp].d([m5C])[sp].d(A)[sp].d(T)[sp].[moe]([m5C])p.[moe](T)p.[moe]([m5C])[sp].[moe]([m5C])}$$$$ (last 3' nucleoside missing),4 score 0-7
16,RNA1{[moe](A)[sp].[moe]([m5C])p.[moe](T)p.[moe](T)p.[moe]([m5C])p.d(A)[sp].d([m5C])[sp].d(A)[sp].d(T)[sp].d(T)[sp].d(T)[sp].d(G)[sp].d(G)[sp].d(A)[sp].d(G)[sp].[moe]([m5C])p.[moe]([m5C])p.[moe]([m5C])[sp].[moe](T)}$$$$ (last 3' nucleoside missing),5.75 score 0-7
17,RNA1{[moe](T)[sp].[moe]([m5C])p.[moe](T)p.[moe](G)[sp].[moe](T)[sp].d(A)[sp].d([m5C])[sp].d(T)[sp].d(T)[sp].d(T)[sp].d(T)[sp].d([m5C])[sp].d(T)[sp].d([m5C])[sp].d(A)[sp].[moe](T)p.[moe](G)p.[moe](T)[sp].[moe](G)}$$$$ (last 3' nucleoside missing),1 score 0-7
18,RNA1{[moe](T)[sp].[moe](T)p.[moe]([m5C])p.[moe](T)p.[moe]([m5C])p.[moe](T)p.d(A)[sp].d(T)[sp].d(T)[sp].d(T)[sp].d([m5C])[sp].d(T)[sp].d(T)[sp].d(T)[sp].d(G)[sp].d(T)[sp].[moe]([m5C])p.[moe]([m5C])[sp].[moe](A)}$$$$ (last 3' nucleoside missing),4 score 0-7
19,RNA1{[moe](G)[sp].[moe](T)p.[moe](G)p.[moe](T)p.[moe](T)p.d(T)[sp].d(G)[sp].d(G)[sp].d(G)[sp].d(A)[sp].d(T)[sp].d(G)[sp].d([m5C])[sp].d(T)[sp].d(T)[sp].[moe]([m5C])p.[moe](A)p.[moe](G)[sp].[moe](A)}$$$$ (last 3' nucleoside missing),5.5 score 0-7
20,RNA1{[moe](T)[sp].[moe](G)p.[moe](T)p.[moe](T)p.[moe](T)p.d(G)[sp].d(T)[sp].d(T)[sp].d(T)[sp].d(G)[sp].d(T)[sp].d(T)[sp].d(T)[sp].d(T)[sp].d(A)[sp].[moe](A)p.[moe](G)p.[moe](T)[sp].[moe](A)}$$$$ (last 3' nucleoside missing),6.5 score 0-7
21,RNA1{[moe]([m5C])[sp].[moe](T)p.[moe](T)p.[moe](G)p.[moe](T)p.d(T)[sp].d(G)[sp].d(T)[sp].d(T)[sp].d(G)[sp].d(T)[sp].d(T)[sp].d(T)[sp].d(A)[sp].d([m5C])[sp].[moe](A)p.[moe](T)p.[moe](T)[sp].[moe](A)}$$$$ (last 3' nucleoside missing),3 score 0-7
22,RNA1{[moe](G)[sp].[moe](T)p.[moe](T)p.[moe]([m5C])p.[moe](A)p.d(A)[sp].d(A)[sp].d(T)[sp].d(T)[sp].d([m5C])[sp].d([m5C])[sp].d(G)[sp].d(G)[sp].d([m5C])[sp].d(T)[sp].[moe]([m5C])p.[moe]([m5C])p.[moe](A)[sp].[moe](T)}$$$$ (last 3' nucleoside missing),5.25 score 0-7
23,RNA1{[moe](G)[sp].[moe]([m5C])p.[moe](T)p.[moe](T)p.d(A)[sp].d(G)[sp].d(A)[sp].d(G)[sp].d(T)[sp].d(T)[sp].d(T)[sp].d(T)[sp].d(T)[sp].d(G)[sp].[moe]([m5C])p.[moe]([m5C])p.[moe](T)p.[moe](T)[sp].[moe]([m5C])}$$$$ (last 3' nucleoside missing),4 score 0-7
24,RNA1{[moe](G)[sp].[moe](G)p.[moe](A)p.[moe](A)p.[moe](T)p.d([m5C])[sp].d(T)[sp].d(T)[sp].d(A)[sp].d(T)[sp].d(T)[sp].d(A)[sp].d(A)[sp].d(G)[sp].d([m5C])[sp].[moe](A)p.[moe](A)p.[moe](G)[sp].[moe](T)}$$$$ (last 3' nucleoside missing),4.5 score 0-7
25,RNA1{[moe](A)[sp].[moe](T)p.[moe](G)p.[moe]([m5C])p.[moe](T)p.d(G)[sp].d(G)[sp].d(T)[sp].d(T)[sp].d([m5C])[sp].d([m5C])[sp].d(T)[sp].d(T)[sp].d(A)[sp].d([m5C])[sp].[moe](A)p.[moe](A)p.[moe](T)[sp].[moe](T)}$$$$ (last 3' nucleoside missing),0 score 0-7
26,RNA1{[moe]([m5C])[sp].[moe](T)p.[moe](T)p.[moe](T)p.[moe](T)[sp].d([m5C])[sp].d(T)[sp].d([m5C])[sp].d(A)[sp].d(T)[sp].d(G)[sp].d(T)[sp].d(G)[sp].[moe]([m5C])p.[moe](G)p.[moe](G)[sp].[moe]([m5C])}$$$$ (last 3' nucleoside missing),5.5 score 0-7
27,RNA1{[moe](A)[sp].[moe]([m5C])p.[moe](A)p.[moe](G)p.[moe](T)p.d(T)[sp].d(T)[sp].d([m5C])[sp].d(A)[sp].d([m5C])[sp].d(T)[sp].d(A)[sp].d(G)[sp].d(G)[sp].d(T)[sp].[moe](T)p.[moe]([m5C])p.[moe](T)[sp].[moe]([m5C])}$$$$ (last 3' nucleoside missing),3.25 score 0-7
